We go through 2 compounds from ChEMBL document CHEMBL4425106, “Uncoupling the Structure-Activity Relationships of β2 Adrenergic Receptor Ligands from Membrane Binding” (J Med Chem, 2016).

The experiment concerns the target Beta-2 adrenergic receptor (Homo sapiens) (UniProt P07550).

Beta-2 adrenergic receptor (Homo sapiens), sequence (P07550 whole entry, looked up): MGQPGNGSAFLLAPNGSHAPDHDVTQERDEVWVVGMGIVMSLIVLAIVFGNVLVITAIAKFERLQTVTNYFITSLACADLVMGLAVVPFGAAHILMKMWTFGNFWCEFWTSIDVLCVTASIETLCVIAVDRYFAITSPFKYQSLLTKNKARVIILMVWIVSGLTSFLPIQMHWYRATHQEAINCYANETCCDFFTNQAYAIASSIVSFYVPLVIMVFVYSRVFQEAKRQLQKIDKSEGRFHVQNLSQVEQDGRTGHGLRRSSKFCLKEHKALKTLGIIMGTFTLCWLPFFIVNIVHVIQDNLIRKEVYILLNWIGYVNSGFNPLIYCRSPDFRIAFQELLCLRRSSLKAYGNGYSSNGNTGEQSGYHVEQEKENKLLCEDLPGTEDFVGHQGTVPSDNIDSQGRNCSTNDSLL
Description: Binding affinity to inactive/G protein-uncoupled human beta2-AR by immobilized artificial membrane HPLC analysis

The compound `CC(C)(C)NCC(O)COc1cccc2c1CC(O)C(O)C2` (mixture of isomers) registered a log K of 1.7.
In the case of `CC(C)(C)NCC(O)COc1cccc2[nH]c(C#N)cc12` (racemic) it was 2.9.
